Read-outs that look alike come from different tables or passages of the source.
How the values were obtained:
Staphylococcus Aureus = conditions: within 5 minutes of contact time; cited from earlier work
Pseudomonas Aeruginosa = conditions: within 5 minutes of contact time; cited from earlier work
[1] = system: residual ATP (ATP-containing contamination including bacteria); conditions: granite tile, 3 ml soaked through paper towel, after 5 minutes; before treatment Area 1: 1057, Area 2: 998
Source text: Therefore, the surfaces to be evaluated had to be thoroughly cleaned and tested for contamination prior to commencing the test.
Test results are presented as Relative Light Units (“RLU”). RLU is the unit of measurement used in bioluminescence. When a test swab is activated, a bioluminescent reaction occurs, generating light output. Luminometers measure and quantify that light with an RLU output.
A high RLU reading indicates a large amount of ATP at the test location. This in turn indicates improper cleaning and the presence of contaminants.
Cleaning properly results in less ATP at the location. Less ATP results in less light output during the bioluminescent reaction and consequently, a lower RLU reading.
A granite floor tile was selected and thoroughly disinfected with hot water and a cocktail of disinfectants. It was then tested for ATP until the readings consistently indicated RLU of 0-2 which represented a surface free of ATP within the margins of error.
A sample of seemingly contaminated water was collected from a pond and left stagnant for solid settlement for 3 days.
The granite tile was covered with a paper towel and the water was added to the towel in a dropwise manner until it was completely soaked. After a few hours, soaking was repeated, and the specimen was left to dry overnight. […]

[2] = system: residual ATP (ATP-containing contamination including bacteria); test: ATP bioluminescence disinfection efficacy on polyester fabric contaminated with collected water; conditions: 5 ml dropwise, after 5 minutes, before treatment Area 1: 243, Area 2: 291
Source text: Bioluminescence is a practical and simple method used to quickly assess the bio-contamination of surfaces. The method has been developed based on the biochemical adenosine triphosphate (“ATP”), which is the energy molecule of all the living organisms, luciferin/luciferase, and oxygen. The reaction results in a light-emitting decay which can be detected and related to the amount of ATP.
The luminometer (in conjunction with ATP swabs) uses bioluminescence to detect residual ATP as an indicator of surface cleanliness. The presence of ATP on a surface indicates incomplete cleaning and the presence of ATP-containing contamination including bacteria.
Test results are presented as Relative Light Units (“RLU”). RLU is the unit of measurement used in bioluminescence. When a test swab is activated, a bioluminescent reaction occurs, generating light output. Luminometers measure and quantify that light with an RLU output. […]
The relationship between the amount of ATP on the sample and the RLU result reading on the luminometer is directly proportional to the amount of ATP collected from the sample. A high RLU reading indicates a large amount of ATP at the test location. […]
Cleaning properly results in less ATP at the location. Less ATP results in less light output during the bioluminescent reaction and consequently, a lower RLU reading. […]

Compound | reduction against Staphylococcus Aureus (Staphylococcus Aureus) | reduction against Pseudomonas Aeruginosa (Pseudomonas Aeruginosa) | ATP reading after treatment [1] | ATP reading after treatment [2]
OO [0.6 wt. % hydrogen peroxide solution, hydrogen peroxide] | ~1 Log | < 1 Log | – | –
OO [hydrogen peroxide with no other additive, hydrogen peroxide] | – | – | 82 RLU | –
OO [6 weight percent hydrogen peroxide solution] | ~3 Log | < 2 Log | – | –
CC(C)O [commercial 70% Iso-Propyl Alcohol, Iso-Propyl Alcohol] | – | – | – | 22 RLU
